{"source": "ChEMBL document CHEMBL4190340", "about": "“Studies on the cytotoxicity and anticancer performance of heterocyclic hypervalent organobismuth(III) compounds” (Eur J Med Chem, 2017)", "key": {"A549 [1]": {"system": "A549", "test": "Induction of apoptosis in human A549 cells assessed as necrotic cells at 3 uM after 48 hrs by Annexin V-FITC/propidium iodide staining based flow cytometric analysis (reference value: 1.21%)", "format": "functional, cell-based"}, "A549 [2]": {"system": "A549", "test": "Induction of apoptosis in human A549 cells assessed as connection disappearance at 10 uM after 48 hrs by Annexin V-FITC/propidium iodide staining based laser scanning confocal microscopic analysis", "format": "functional, cell-based"}, "A549 [3]": {"system": "A549", "test": "Induction of apoptosis in human A549 cells assessed as early apoptotic cells at 3 uM after 48 hrs by Annexin V-FITC/propidium iodide staining based flow cytometric analysis (reference value: 2.89%)", "format": "functional, cell-based"}, "A549 [4]": {"system": "A549", "test": "Upregulation of Bax protein level in human A549 cells at 3 to 10 uM after 24 hrs by Western blot analysis", "format": "functional, cell-based"}, "A549 [5]": {"system": "A549", "test": "Induction of apoptosis in human A549 cells assessed as nuclear enrichment at 10 uM after 48 hrs by Annexin V-FITC/propidium iodide staining based laser scanning confocal microscopic analysis", "format": "functional, cell-based"}, "A549 [6]": {"system": "A549", "test": "Induction of apoptosis in human A549 cells assessed as necrotic cells at 10 uM after 48 hrs by Annexin V-FITC/propidium iodide staining based flow cytometric analysis (reference value: 1.21%)", "format": "functional, cell-based"}, "A549 [7]": {"system": "A549", "test": "Downregulation of Bcl-2 protein level in human A549 cells at 3 to 10 uM after 24 hrs by Western blot analysis", "format": "functional, cell-based"}, "A549 [8]": {"system": "A549", "test": "Cytotoxicity against human A549 cells assessed as reduction in cell viability after 48 hrs by CCK8 assay", "format": "functional, cell-based"}, "A549 [9]": {"system": "A549", "test": "Induction of apoptosis in human A549 cells assessed as early apoptotic cells at 10 uM after 48 hrs by Annexin V-FITC/propidium iodide staining based flow cytometric analysis (reference value: 2.89%)", "format": "functional, cell-based"}, "A549 [10]": {"system": "A549", "test": "Downregulation of Bcl-2 mRNA expression in human A549 cells at 10 uM after 24 hrs by qRT-PCR analysis", "format": "functional, cell-based"}, "A549 [11]": {"system": "A549", "test": "Induction of apoptosis in human A549 cells assessed as late apoptotic cells at 10 uM after 48 hrs by Annexin V-FITC/propidium iodide staining based flow cytometric analysis (reference value: 1.73%)", "format": "functional, cell-based"}, "A549 [12]": {"system": "A549", "test": "Induction of apoptosis in human A549 cells assessed as membrane blebbing at 10 uM after 48 hrs by Annexin V-FITC/propidium iodide staining based laser scanning confocal microscopic analysis", "format": "functional, cell-based"}, "A549 [13]": {"system": "A549", "test": "Induction of apoptosis in human A549 cells assessed as early apoptotic cells in presence of z-VAD-fmk by Annexin V-FITC/propidium iodide staining based flow cytometric analysis (reference value: 1.43%)", "format": "functional, cell-based"}, "A549 [14]": {"system": "A549", "test": "Induction of apoptosis in human A549 cells assessed as necrotic cells in presence of z-VAD-fmk by Annexin V-FITC/propidium iodide staining based flow cytometric analysis (reference value: 0.96%)", "format": "functional, cell-based"}, "A549 [15]": {"system": "A549", "test": "Induction of apoptosis in human A549 cells assessed as late apoptotic cells at 3 uM after 48 hrs by Annexin V-FITC/propidium iodide staining based flow cytometric analysis (reference value: 1.73%)", "format": "functional, cell-based"}, "A549 [16]": {"system": "A549", "test": "Induction of apoptosis in human A549 cells assessed as cell shrinkage at 10 uM after 48 hrs by Annexin V-FITC/propidium iodide staining based laser scanning confocal microscopic analysis", "format": "functional"}, "A549 [17]": {"system": "A549", "test": "Upregulation of Bax mRNA expression in human A549 cells at 10 uM after 24 hrs by qRT-PCR analysis", "format": "functional, cell-based"}, "Homo sapiens": {"organism": "Homo sapiens", "test": "Cytotoxicity against human […] cells assessed as reduction in cell viability after 48 hrs by CCK8 assay", "format": "functional, cell-based"}, "A549 [18]": {"system": "A549", "test": "Induction of apoptosis in human A549 cells assessed as late apoptotic cells in presence of z-VAD-fmk by Annexin V-FITC/propidium iodide staining based flow cytometric analysis (reference value: 1.66%)", "format": "functional, cell-based"}, "A549 [19]": {"system": "A549", "test": "Induction of apoptosis in human A549 cells assessed as reduction in pro caspase 3 level at 10 uM after 24 hrs by Western blot analysis", "format": "functional, cell-based"}, "SGC-7901": {"system": "SGC-7901", "test": "Cytotoxicity against human SGC7901 cells assessed as reduction in cell viability after 48 hrs by CCK8 assay", "format": "functional, cell-based"}, "A549 [20]": {"system": "A549", "test": "Induction of apoptosis in human A549 cells after 48 hrs by Annexin V-FITC/propidium iodide staining based flow cytometric analysis", "format": "functional, cell-based"}, "SW480": {"system": "SW480", "test": "Cytotoxicity against human SW480 cells assessed as reduction in cell viability after 48 hrs by CCK8 assay", "format": "functional, cell-based"}, "A549 [21]": {"system": "A549", "test": "Induction of apoptosis in human A549 cells assessed as late apoptotic cells by Annexin V-FITC/propidium iodide staining based flow cytometric analysis (reference value: 1.66%)", "format": "functional, cell-based"}, "A549 [22]": {"system": "A549", "test": "Induction of apoptosis in human A549 cells assessed as early apoptotic cells by Annexin V-FITC/propidium iodide staining based flow cytometric analysis (reference value: 1.43%)", "format": "functional, cell-based"}, "A549 [23]": {"system": "A549", "test": "Induction of apoptosis in human A549 cells assessed as necrotic cells by Annexin V-FITC/propidium iodide staining based flow cytometric analysis (reference value: 0.96%)", "format": "functional, cell-based"}}, "note": "Calls of active or inactive are those of the source. The rule behind the calls is not given here.", "data": [{"substance": "5H-dibenzo[c,f][1,5]oxabismocin-12(7H)-yl nitrate", "values": [{"measurement": "Activity", "setting": "A549 [1]", "result": 0.617, "unit": "%"}, {"measurement": "Activity", "setting": "A549 [2]", "result": "Active"}, {"measurement": "Activity", "setting": "A549 [3]", "result": 5.18, "unit": "%"}, {"measurement": "Activity", "setting": "A549 [4]", "result": "Active"}, {"measurement": "Activity", "setting": "A549 [5]", "result": "Active"}, {"measurement": "Activity", "setting": "A549 [6]", "result": 6.68, "unit": "%"}, {"measurement": "Activity", "setting": "A549 [7]", "result": "Active"}, {"measurement": "Activity", "setting": "A549 [8]", "result": "Dose-dependent effect"}, {"measurement": "Activity", "setting": "A549 [9]", "result": 17.4, "unit": "%"}, {"measurement": "Activity", "setting": "A549 [10]", "result": "Active"}, {"measurement": "Activity", "setting": "A549 [11]", "result": 4.24, "unit": "%"}, {"measurement": "Activity", "setting": "A549 [12]", "result": "Active"}, {"measurement": "Activity", "setting": "A549 [13]", "result": 3.19, "unit": "%"}, {"measurement": "Activity", "setting": "A549 [14]", "result": 2.66, "unit": "%"}, {"measurement": "Activity", "setting": "A549 [15]", "result": 4.16, "unit": "%"}, {"measurement": "Activity", "setting": "A549 [16]", "result": "Active"}, {"measurement": "Activity", "setting": "A549 [17]", "result": "Active"}, {"measurement": "Activity", "setting": "Homo sapiens", "result": "Dose-dependent effect"}, {"measurement": "Activity", "setting": "A549 [18]", "result": 5.26, "unit": "%"}, {"measurement": "Activity", "setting": "A549 [19]", "result": "Active"}, {"measurement": "Activity", "setting": "SGC-7901", "result": "Dose-dependent effect"}, {"measurement": "Activity", "setting": "A549 [20]", "result": "Dose-dependent effect"}, {"measurement": "Activity", "setting": "SW480", "result": "Dose-dependent effect"}, {"measurement": "Activity", "setting": "A549 [21]", "result": 10.2, "unit": "%"}, {"measurement": "Activity", "setting": "A549 [22]", "result": 18.6, "unit": "%"}, {"measurement": "Activity", "setting": "A549 [23]", "result": 2.24, "unit": "%"}]}]}
